Experimental data reported in patent US4336253A, “Cephalosporin antibiotics” (Eli Lilly and Company, priority 1981, dated 1982).

Assay: physchem
[1] = 66% dmf, first titratable group
[2] = 66% dmf, second titratable group

pKa (water, first titratable group)	pKa (water, second titratable group)	pKa [1]	pKa [2]	SMILES
3.55	7.9	–	–	CN(O)C(=O)c1ccncc1 [N-hydroxy-N-methyl 4-pyridinecarboxamide]
4.05	9.2	~3.4	11.7	O=C(Cc1ccccn1)NO [N-hydroxy-2-pyridineacetamide]
4.6	9.09	3.68	11.5	O=C(Cc1cccnc1)NO [N-hydroxy 3-pyridineacetamide]
